The values below come from US9289445B2, “Compositions and methods for treating or preventing a retrovirus infection” (University of Rochester, priority 2011, dated 2016).

The Km is the substrate concentration at which the rate is half of its maximum. A word on the Kd: it is a measure of binding affinity in units of concentration. A higher Kd goes with a looser complex.

The target in series [1] is T1, HIV-1 RT (Human immunodeficiency virus type 1 group M subtype B, UniProt P04585).
T1 construct: Pre-Steady State Kinetic Parameters of HIV-1 RT for dTTP/dUTP
The series can be described thus: Single nucleotide extension at macrophage nucleotide concentrations. It counts as biochemical. The note with it: rNTP alone at macrophage concentration. The source says:
FIGS. 4A-4E compare the dNTP and rNTP incorporation rates of HIV-1 RT at nucleotide concentrations found in human macrophages. Incorporation kinetics of HIV-1 RT (green circle) for individual dNTPs and rNTPs at their concentrations found in macrophages (see Table 1) were compared by single nucleotide extension reactions. FIG. 4A is a gel showing a representative time-course reaction set for dATP alone, ATP alone, or both dATP and ATP at their macrophage concentrations. P: unextended 17-mer primer, E: extended 18-mer product. and C: no RT control. FIG. 4B includes graphs. The percentages of the primer extension at early time points were plotted to compare the incorporation rate for each dNTP or rNTP alone as well as for dNTPs and rNTPs at their macrophage concentrations. FIG. 4C is a gel showing a time-course reaction. Identical reactions were conducted with SIVagm Sab-1 RT. FIG. 4D is a table showing the steady state Km values of HIV-1 RT to rNTPs determined by single nucleotide incorporation assays. FIG. 4E is a graph comparing rNTP concentrations (black bars) of macrophages and PBMCs and the Km values (red zone) of HIV-1 RT to rNTPs. Grey bars: average concentrations of dNTPs of the two target cell types obtained from Table 1.
The incorporation kinetics for individual dNTPs and rNTPs by retrovirus RT at the concentrations found in non-dividing cells were assessed. For this, a primer extension reaction similar to that used in FIG. 3C was employed, except nucleotide specific primers and a single dNTP, rNTP, or both were used to estimate individual nucleotide incorporation rates. […] Upon combining dNTPs and rNTPs in a reaction (FIGS. 4A and B, purple dotted lines), the total single nucleotide extension rate appeared to be elevated as compared to the rates of either dNTP (red line) or rNTP alone. When primer extension products were plotted by time, primer extension was accelerated in the presence of both dNTPs and rNTPs at their macrophage concentrations as compared to the reactions containing either dNTPs or rNTPs alone. The results of this single nucleotide assay are consistent with the data from the multiple nucleotide incorporation assay (FIG. 3C).

Series [2] has as its target T1, HIV-1 RT. Nature of the series: Steady state kinetics of reverse transcriptase for dTTP/dUTP. It counts as biochemical. The procedure:
(§1) Retrovirus RT was assessed for its ability to incorporated dTTP and dUTP at physiologically relevant concentrations. First, Km of HIV-1 RT, SIV RT, MuLV RT, and FIV RT for both dTTP and dUTP was measured.
The single nucleotide incorporation reactions were conducted using 20 nM template/primers (40mer RNA template annealed to Primer A, Ext-T primer, Ext-G primer, or Ext-C primer) and 20 nM RT in 1× reaction buffer for 5 minutes at varying concentrations of NTP. Reactions were performed in triplicate.
(§2) All primer extension reactions were analyzed with urea denaturing 10-16% PAGE gels and scanned with a phosphoimager (Biorad, Hercules, Calif.) and quantified with the Biorad Quantity One software. Nonlinear regression analysis was done with Kaleida Graph (Synergy Software, Reading, Pa.). Rates were determined with a single exponential, and Michaelis Menten fits were completed as previously described in Kennedy et al. Biochemistry 48:11161-11168 (2009).

The subject of series [3] is SIVagm Sab1 RT. The description is as above. It counts as biochemical, simian immunodeficiency virus (SIVagm Sab). The conditions noted are these: SIV RT. The procedure:
as §1, §2

Series [4] addresses FIV RT (Feline immunodeficiency virus, UniProt P16088). Described as above. In kind it is biochemical. The procedure: as §1, §2
Series [5] addresses MuLV RT (Moloney murine leukemia virus, UniProt P03355). The series is described as above. In kind it is biochemical. The procedure: as §1, §2
The target in series [6] is T1, HIV-1 RT. The series can be described thus: Pre-steady state quench flow titrations for dTTP and dUTP. In kind it is biochemical. The procedure:
To confirm that selectivity is not pronounced during the binding or isomerization steps of polymerization, pre-steady state quench flow titrations for dTTP and dUTP were performed with HIV-1 RT.

The target of series [7] is T1, HIV-1 RT. Nature of the series: Primer extension followed by E. coli UNG2 digestion (dUTP incorporation). In kind it is biochemical. The procedure: FIG. 8A includes a schematic of a coupled RT extension reaction UNG2 digestion assay and a gel. RT was incubated with i) the dNTP concentrations found in macrophages or PBMCs, and ii) either the dUTP concentration for those cells types or ddH20. These reactions were quenched with EDTA and subjected to E. Coli UNG2 digestion, followed by 95° C. incubation and UREA PAGE gel electrophoresis. The digested bands (*) were quantified and plotted relative to total unextended and extended products. […] FIG. 8C includes a gel showing the results of single nucleotide extension reactions of HIV-1 RT with dTTP and dUTP concentrations found in macrophages. […] The rates of product formation for dTTP (black line), dUTP (blue line), and both dTTP and dUTP (green line) were plotted.
HIV-1 RT mediated DNA synthesis in nucleotide pools found in dividing and non-dividing cells was further assessed using a primer extension assay followed by E. coli UNG2 digestion to quantify the amount of dUTP incorporated under these condition (FIG. 8). The presence of a […] band at the first dTTP/dUTP incorporation site was used to monitor the fraction of DNAs that contained a dUTP following UNG digestion (see * in FIG. 8). […] The single nucleotide extension assays were performed to compare the rate of incorporation dTTP, dUTP, or both nucleotides at concentrations found in non-dividing cells. […]

Series [8] deals with HIV-1 vector (D3-GFP) in primary human macrophages. The series can be described thus: HIV-GFP vector transduction of primary macrophages (GFP FACS). In kind it is cell-based. The conditions noted are these: ddUTP pretreated macrophages, flow cytometry. (A flow cytometer gives signals particle by particle.)
Experimental: Human primary macrophages were preincubated with different concentrations of rACT (0, 10, 100 and 100 μM) for 24 hours and then transduced with HIV-GFP vector (equal p24 amounts). The percentages of GFP positive macrophages and PI positive cells in a representative donor, which were determined by FACS at 7 days post transduction, are shown. […] These experiments were performed in triplicate from three different blood donors.
Primary human macrophages were pretreated with ddUTP and transduced with a single round VSV-G pseudotyped HIV-1 vector (D3HIV). […] FIG. 10B is a graph showing the results from flow cytometry analysis of the transduced cells.
Next, rACT was evaluated for its ability to inhibit HIV-1 replication in non-dividing cells. The transduction efficiency of an HIV-1 vector in primary human macrophages in the presence and absence of rACT was measured. Human macrophages, which were prepared from multiple donors, were pre-incubated with various concentrations of rACT, and then transduced with an HIV vector (D3-GFP), which expressed all HIV-1 proteins except Env and Nef (replaced with eGFP). Virus infectivity was determined by FACS analysis for GFP expression at 7 days post infection.
Dideoxy uracil triphosphate (ddUTP) was assessed for its ability to inhibit viral reverse transcription in non-dividing cells. […]
Series [9] concerns HIV-1 2-LTR DNA circles (proviral DNA synthesis) in macrophages. Nature of the series: Quantitative 2LTR circle PCR in transduced macrophages. It counts as cell-based. The conditions noted are these: ddUTP treated cells.
Experimental: Human macrophages, which were prepared from multiple donors, were pre-incubated with various concentrations of rACT, and then transduced with an HIV vector (D3-GFP), which expressed all HIV-1 proteins except Env and Nef (replaced with eGFP).
(§3) Dideoxy uracil triphosphate (ddUTP) was assessed for its ability to inhibit viral reverse transcription in non-dividing cells. Primary human macrophages and CD4^+ T-cells were isolated from human buffy coats and pretreated with ddUTP. The treated cells were then transduced with a single round of VSV-G pseudotyped HIV-1 vector D3-HIV in the presence of various concentrations of drug.
Equal p24 level of the produced vector was used for infecting human macrophages pre-incubated with different concentrations of rACT (RI Chemicals, CA) for 12 hours. For ddUTP, the produced vector was pre-incubated for at least two hours. One half of the harvested cells were used for determining the percentages of the GFP expressing and/or propidium iodide (PI) stained cells by FACS at 7 days post infection. All cells used to asses transduction efficiency were gated or stained with propidium iodide to assure live cells were measured. The remaining cells were used for the extraction of genomic DNA. Quantitative 2LTR circle PCR assay using real-time PCR was normalized by total genomic DNA (Biorad, Hercules, Calif.).
In series [10] the test system is HIV-1 vector (DHIV-GFP) in activated CD4+ T cells. Nature of the series: HIV-GFP vector transduction of activated CD4+ T cells (GFP FACS). In kind it is cell-based. The conditions noted are these: ddUTP, CD4+ T cells.
Experimental: Next, rACT was evaluated for its ability to inhibit HIV-1 replication in non-dividing cells. The transduction efficiency of an HIV-1 vector in primary human macrophages in the presence and absence of rACT was measured. Human macrophages, which were prepared from multiple donors, were pre-incubated with various concentrations of rACT, and then transduced with an HIV vector (D3-GFP), which expressed all HIV-1 proteins except Env and Nef (replaced with eGFP). Virus infectivity was determined by FACS analysis for GFP expression at 7 days post infection. […] Finally, the effect of rACT on HIV-1 infection in activated CD4^+ T cells was examined.
as §3
rACT was tested in T cells as follows, human primary activated CD4^+ T cells (2.5×10^5) cells isolated from two donors were pre-treated with 0, 0.1, and 1 mM rACT for 4 hours, and then the cells were transduced with DHIV-GFP. The transduced cells were fixed at 48 hours post transduction, and analyzed by FACS for determining the percent of GFP cells. […]
For series [11], the system named is primary human macrophages.
Experimental: The treated cells were then transduced with a single round of VSV-G pseudotyped HIV-1 vector D3-HIV in the presence of various concentrations of drug.
The purified human monocytes from three different donors were differentiated to macrophages as described previously, and D3HIV-GFP vector system expressing GFP, was also prepared as previously described in Jamburuthugoda et al. J. Biol. Chem. 281:13388-13395 (2006); Diamond et al. J. Biol. Chem. 279:51545-51553 (2004); Jamburuthugoda et al. J. Biol. Chem. 283:9206-9216 (2008); and Weiss et al. Biochemistry 43:4490-4500 (2004). […] One half of the harvested cells were used for determining the percentages of the GFP expressing and/or propidium iodide (PI) stained cells by FACS at 7 days post infection. All cells used to asses transduction efficiency were gated or stained with propidium iodide to assure live cells were measured.

Structures are written as SMILES.

Turning to `Nc1ncnc2c1ncn2[C@@H]1O[C@H](COP(=O)(O)OP(=O)(O)OP(=O)(O)O)[C@@H](O)[C@H]1O` [ATP], the “rNTP incorporation by HIV-1 RT” value in [1] was “efficiently”.
Consider `Nc1ccn([C@@H]2O[C@H](COP(=O)(O)OP(=O)(O)OP(=O)(O)O)[C@@H](O)[C@H]2O)c(=O)n1` [CTP], for which, in series [1], the “rNTP incorporation by HIV-1 RT” value is reported as “efficiently”.
Consider `Nc1nc2c(ncn2[C@@H]2O[C@H](COP(=O)(O)OP(=O)(O)OP(=O)(O)O)[C@@H](O)[C@H]2O)c(=O)[nH]1` [GTP], for which, in series [1], the “rNTP incorporation by HIV-1 RT” value is on record as “less efficiently”.
Turning to `O=c1ccn([C@@H]2O[C@H](COP(=O)(O)OP(=O)(O)OP(=O)(O)O)[C@@H](O)[C@H]2O)c(=O)[nH]1` [UTP], the “rNTP incorporation by HIV-1 RT” value in series [1] was “less efficiently”.
Take `Cc1cn([C@H]2C[C@H](O)[C@@H](COP(=O)(O)OP(=O)(O)OP(=O)(O)O)O2)c(=O)[nH]c1=O` [dTTP]: in series [2], the Km amounted to 0.0218 ± 0.0028 µM and the “Selectivity (dTTP/dUTP)” value came to 1.298. In addition, in [3], the Km amounted to 0.0184 ± 0.0043 µM and the “Selectivity (dTTP/dUTP)” value is 0.839. Further, in series [4], the Km was found to be 0.0586 ± 0.0066 µM and the “Selectivity (dTTP/dUTP)” value turned out to be 3.754. In series [5], the Km came out at 0.0504 ± 0.022 µM and the “Selectivity (dTTP/dUTP)” value is listed as 4.969. In series [6], the Kd is 3.4 ± 0.62 µM, the Kpol amounted to 85.72 ± 7.3 S^−1, the Selectivity was determined as 1.0 and the kpol/kd turned out to be 25 μM^−1 S^−1.
Turning to `O=c1ccn([C@H]2C[C@H](O)[C@@H](COP(=O)(O)OP(=O)(O)OP(=O)(O)O)O2)c(=O)[nH]1` [dUTP], the Km in series [2] amounted to 0.0277 ± 0.007 µM. Further, the Km in series [3] came out at 0.017 ± 0.0035 µM. The Michaelis constant (Km) in series [4] came to 0.18 ± 0.0045 µM. For the same compound, the Km in series [5] came out at 0.253 ± 0.0521 µM. For the same compound, in series [6], the Kd was determined as 5.1 ± 1.93 µM, the Kpol amounted to 194.39 ± 30.0 S^−1, the Selectivity is recorded as 1.52 and the kpol/kd is on record as 38 μM^−1 S^−1. Moreover, the “dUTP incorporation, fraction of all synthesized DNA” value in series [7] (dUTP and dNTP levels found in non-dividing cells) is on record as “⅓”. For the same compound, the “dUTP incorporation, non-dividing versus dividing cell environment” value in series [7] (non-dividing compared to dividing cell environment) was “approximately 5 fold”.
Take `O=c1ccn([C@H]2CC[C@@H](COP(=O)(O)OP(=O)(O)OP(=O)(O)O)O2)c(=O)[nH]1` [ddUTP, Dideoxy uracil triphosphate]: the “inhibition of transduction (eGFP positive live macrophages)” value in [8] was “dose dependent inhibition of transduction”. In addition, the “2LTR circles (QT-PCR)” value in series [9] is recorded as 2LTR circles accumulated in the cells treated with higher concentrations of drug. Moreover, the “reduction in transduction efficiency” value in series [10] is reported as “Little or no reduction in transduction efficiency”. Moreover, the cell death result in [11] is reported as “little cell death”.
